Results reported in ChEMBL document CHEMBL3885861, “Open TG-GATES”.

Organism: Rattus norvegicus
Assay: Open TG-GATES - Regimen: Single
Assay type: toxicity, organism-based, Sprague-Dawley
Parameters: regimen Single, gender Male, age 6 weeks
Settings: in vivo, po, 24 h, route gavage; for Bas / Eos / Hb / Ht / Lym / MCH / MCHC / MCV / Mono / Neu / Plat / RBC / Ret / WBC: tissue Blood; for KIDNEY_L / KIDNEY_R / KIDNEY_TOTAL: tissue Kidney; for LIVER: tissue Liver; for A/G / ALP / ALT / AST / BUN / CRE / Ca / Cl / DBIL / GLC / IP / K / Na / PL / RALB / TBIL / TC / TG / TP / gamma-GTP: tissue Plasma

## COc1cc2c(c3oc(=O)c4c(c13)CCC4=O)[C@@H]1C=CO[C@@H]1O2 [AFLATOXIN]
0 mg/kg, dose level Control
  TERMINAL_BW: 227.2 g
  Bas: 0%
  Eos: 1%
  Hb: 12.7 g/dL
  Ht: 37.5%
  Lym: 79%
  MCH: 20.7 pg
  MCHC: 33.9%
  MCV: 60.9 fL
  Mono: 2.8%
  Neu: 16.2%
  Plat: 118.1 x10_4/uL
  RBC: 616 x10_4/ul
  Ret: 8.7%
  WBC: 76.8 x10_2/uL
  KIDNEY_L: 1 g
  KIDNEY_R: 1 g
  KIDNEY_TOTAL: 2.1 g
  LIVER: 10.9 g
  A/G: 1
  ALP: 1775.8 IU/L
  ALT: 40 IU/L
  AST: 72.2 IU/L
  BUN: 16.5 mg/dL
  CRE: 0.2 mg/dL
  Ca: 10.8 mg/dL
  Cl: 104.1 meq/L
  DBIL: 0.002 mg/dL
  GLC: 189.4 mg/dL
  IP: 7 mg/dL
  K: 4.5 meq/L
  Na: 139.2 meq/L
  PL: 153.4 mg/dL
  RALB: 2.8 g/dL
  TBIL: 0 mg/dL
  TC: 76.2 mg/dL
  TG: 141.9 mg/dL
  TP: 5.7 g/dL
  gamma-GTP: 0.8 IU/L
1 mg/kg, dose level Low
  TERMINAL_BW: 220.4 g
  Bas: 0%
  Eos: 0.8%
  Hb: 12.8 g/dL
  Ht: 37.6%
  Lym: 74.6%
  MCH: 20.5 pg
  MCHC: 34.2%
  MCV: 60 fL
  Mono: 4.8%
  Neu: 19.2%
  Plat: 127.7 x10_4/uL
  RBC: 627.4 x10_4/ul
  Ret: 8.8%
  WBC: 97.6 x10_2/uL
  KIDNEY_L: 1 g
  KIDNEY_R: 1 g
  KIDNEY_TOTAL: 2 g
  LIVER: 10.2 g
  A/G: 1
  ALP: 1769.4 IU/L
  ALT: 59.6 IU/L
  AST: 97 IU/L
  BUN: 15.7 mg/dL
  CRE: 0.2 mg/dL
  Ca: 10.7 mg/dL
  Cl: 103.9 meq/L
  DBIL: 0.002 mg/dL
  GLC: 171.4 mg/dL
  IP: 7.5 mg/dL
  K: 4.4 meq/L
  Na: 138.8 meq/L
  PL: 150.2 mg/dL
  RALB: 2.8 g/dL
  TBIL: 0 mg/dL
  TC: 84.4 mg/dL
  TG: 93.8 mg/dL
  TP: 5.7 g/dL
  gamma-GTP: 1 IU/L
3 mg/kg, dose level Middle
  TERMINAL_BW: 219.9 g
  Bas: 0%
  Eos: 0.4%
  Hb: 13.4 g/dL
  Ht: 39.5%
  Lym: 74.2%
  MCH: 20.1 pg
  MCHC: 33.8%
  MCV: 59.5 fL
  Mono: 5.2%
  Neu: 18.6%
  Plat: 114.1 x10_4/uL
  RBC: 663 x10_4/ul
  Ret: 8.5%
  WBC: 84.9 x10_2/uL
  KIDNEY_L: 0.9 g
  KIDNEY_R: 0.9 g
  KIDNEY_TOTAL: 1.9 g
  LIVER: 10.1 g
  A/G: 1
  ALP: 1736.6 IU/L
  ALT: 135 IU/L
  AST: 232 IU/L
  BUN: 15.8 mg/dL
  CRE: 0.2 mg/dL
  Ca: 10.7 mg/dL
  Cl: 105.1 meq/L
  DBIL: 0.012 mg/dL
  GLC: 167.8 mg/dL
  IP: 8.1 mg/dL
  K: 4.4 meq/L
  Na: 139.3 meq/L
  PL: 168 mg/dL
  RALB: 2.7 g/dL
  TBIL: 0.01 mg/dL
  TC: 84.4 mg/dL
  TG: 112.4 mg/dL
  TP: 5.5 g/dL
  gamma-GTP: 1.5 IU/L
10 mg/kg, dose level High
  TERMINAL_BW: 214.9 g
  Bas: 0%
  Eos: 0.6%
  Hb: 14 g/dL
  Ht: 40.8%
  Lym: 47.8%
  MCH: 20.7 pg
  MCHC: 34.3%
  MCV: 60.5 fL
  Mono: 2.8%
  Neu: 47%
  Plat: 104.8 x10_4/uL
  RBC: 674.6 x10_4/ul
  Ret: 8.4%
  WBC: 101.9 x10_2/uL
  KIDNEY_L: 1 g
  KIDNEY_R: 1 g
  KIDNEY_TOTAL: 2 g
  LIVER: 9 g
  A/G: 1
  ALP: 2013.2 IU/L
  ALT: 292.6 IU/L
  AST: 630.8 IU/L
  BUN: 19.7 mg/dL
  CRE: 0.2 mg/dL
  Ca: 10.7 mg/dL
  Cl: 103.7 meq/L
  DBIL: 0.094 mg/dL
  GLC: 153.2 mg/dL
  IP: 9.1 mg/dL
  K: 4.1 meq/L
  Na: 138.9 meq/L
  PL: 158.2 mg/dL
  RALB: 2.8 g/dL
  TBIL: 0.1 mg/dL
  TC: 87.4 mg/dL
  TG: 32.9 mg/dL
  TP: 5.6 g/dL
  gamma-GTP: 2.9 IU/L
